The target in the assay is T1, human Cereblon WT GST-tagged protein (Homo sapiens, UniProt Q96SW2).
T1 construct: purchased CISBIO 64BDCRBNPEH
T1 sequence (Q96SW2 whole entry): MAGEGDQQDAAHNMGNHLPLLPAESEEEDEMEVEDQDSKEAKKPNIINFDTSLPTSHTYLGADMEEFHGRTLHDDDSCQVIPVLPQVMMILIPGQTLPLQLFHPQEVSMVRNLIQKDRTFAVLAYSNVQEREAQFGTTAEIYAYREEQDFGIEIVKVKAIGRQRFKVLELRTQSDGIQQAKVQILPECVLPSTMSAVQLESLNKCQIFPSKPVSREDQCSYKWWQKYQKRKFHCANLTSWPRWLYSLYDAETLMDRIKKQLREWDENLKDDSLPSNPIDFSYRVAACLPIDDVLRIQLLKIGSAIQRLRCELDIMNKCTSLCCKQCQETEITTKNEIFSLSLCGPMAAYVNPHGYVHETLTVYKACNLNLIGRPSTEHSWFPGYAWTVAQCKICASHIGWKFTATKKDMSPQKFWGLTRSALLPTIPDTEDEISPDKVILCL
Put plainly: CRBN binding, HTRF CEREBLON BINDING kit. As to conditions: CRBN binding, HTRF CEREBLON BINDING kit. An outline of the steps:
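HTRF competition in which test compounds displace a Thalidomide-Re tracer from GST-tagged human Cereblon WT, detected with a GST Eu antibody. Incubation lasted 3 hours at room temperature, with emission read at 620 and 665 nm. Inhibition rate was derived from 665/620 ratios relative to blank and solvent control wells.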
As a reminder, the IC50 is the concentration that gives 50% inhibition. High values mean weaker potency in that assay, low ones greater potency in that assay. Molecule `CCc1cc2c(cc1N1CCC(N3CCN(Cc4cccc(N5CCC(=O)NC5=O)c4)CC3)CC1)C(C)(C)c1[nH]c3cc(C#N)ccc3c1C2=O` [GT-07310, 8-(4-(4-(3-(2,4-dioxotetrahydropyrimidin-1(2H)-yl)benzyl)piperazin-1-yl)piperidin-1-yl)-9-ethyl-6,6-dimethyl-11-oxo-6,11-dihydro-5H-benzo[b]carbazole-3-carbonitrile] returned an IC50 of 500 to 1000 nM.

Consider `CCc1cc2c(cc1N1CCC(N3CCN(Cc4ccc(N5CCC(=O)NC5=O)cn4)CC3)CC1)C(C)(C)c1[nH]c3cc(C#N)ccc3c1C2=O` [GT-07311, 8-(4-(4-((5-(2,4-dioxotetrahydropyrimidin-1(2H)-yl)pyridin-2-yl)methyl)piperazin-1-yl)piperidin-1-yl)-9-ethyl-6,6-dimethyl-11-oxo-6,11-dihydro-5H-benzo[b]carbazole-3-carbonitrile], for which the IC50 was in the range of 500 to 1000 nM.

`CCc1cc2c(cc1N1CCC(N3CCN(Cc4cccc(NC5CCC(=O)NC5=O)c4)CC3)CC1)C(C)(C)c1[nH]c3cc(C#N)ccc3c1C2=O` (stereo not drawn) [GT-07313, 8-(4-(4-(3-((2,6-dioxopiperidin-3-yl)amino)benzyl)piperazin-1-yl)piperidin-1-yl)-9-ethyl-6,6-dimethyl-11-oxo-6,11-dihydro-5H-benzo[b]carbazole-3-carbonitrile] registered an IC50 of 1000 to 1900 nM.

`CCc1cc2c(cc1N1CCN(Cc3ccc(C4CCC(=O)NC4=O)cc3)CC1)C(C)(C)c1[nH]c3cc(C#N)ccc3c1C2=O` (stereo not drawn) [GT-07323, 8-(4-(4-(2,6-dioxopiperidin-3-yl)benzyl)piperazin-1-yl)-9-ethyl-6,6-dimethyl-11-oxo-6,11-dihydro-5H-benzo[b]carbazole-3-carbonitrile] showed an IC50 of 500 to 1000 nM.

`CCc1cc2c(cc1N1CCN(Cc3ccc(N4CCC(=O)NC4=O)cc3)CC1)C(C)(C)c1[nH]c3cc(C#N)ccc3c1C2=O` [GT-07324, 8-(4-(4-(2,4-dioxotetrahydropyrimidin-1(2H)-yl)benzyl)piperazin-1-yl)-9-ethyl-6,6-dimethyl-11-oxo-6,11-dihydro-5H-benzo[b]carbazole-3-carbonitrile] showed an IC50 of 1000 to 1900 nM.

`CCc1cc2c(cc1N1CCN(Cc3cccc(N4CCC(=O)NC4=O)c3)CC1)C(C)(C)c1[nH]c3cc(C#N)ccc3c1C2=O` [GT-07325, 8-(4-(3-(2,4-dioxotetrahydropyrimidin-1(2H)-yl)benzyl)piperazin-1-yl)-9-ethyl-6,6-dimethyl-11-oxo-6,11-dihydro-5H-benzo[b]carbazole-3-carbonitrile] displayed an IC50 of 500 to 1000 nM.

`CCc1cc2c(cc1N1CCN(Cc3ccc(N4CCC(=O)NC4=O)cn3)CC1)C(C)(C)c1[nH]c3cc(C#N)ccc3c1C2=O` [GT-07326, 8-(4-((5-(2,4-dioxotetrahydropyrimidin-1(2H)-yl)pyridin-2-yl)methyl)piperazin-1-yl)-9-ethyl-6,6-dimethyl-11-oxo-6,11-dihydro-5H-benzo[b]carbazole-3-carbonitrile] displayed an IC50 of 1000 to 1900 nM.

With `CCc1cc2c(cc1N1CCN(Cc3cccc(NC4CCC(=O)NC4=O)c3)CC1)C(C)(C)c1[nH]c3cc(C#N)ccc3c1C2=O` (stereo not drawn) [GT-07328, 8-(4-(3-((2,6-dioxopiperidin-3-yl)amino)benzyl)piperazin-1-yl)-9-ethyl-6,6-dimethyl-11-oxo-6,11-dihydro-5H-benzo[b]carbazole-3-carbonitrile], the IC50 is below 500 nM.

As for `COc1cc(N2CCN(Cc3ccc(N4CCC(=O)NC4=O)c(F)c3)CC2)ccc1Nc1ncc(Cl)c(Nc2ccccc2P(C)(C)=O)n1` [GT-07346, 1-(4-((4-(4-((5-chloro-4-((2-(dimethylphosphoryl)phenyl)amino)pyrimidin-2-yl)amino)-3-methoxyphenyl)piperazin-1-yl)methyl)-2-fluorophenyl)dihydropyrimidine-2,4(1H,3H)-dione], the IC50 fell in the range of 1000 to 1900 nM.

For `COc1cc(N2CCN(Cc3cccc(N4CCC(=O)NC4=O)c3)CC2)ccc1Nc1ncc(Cl)c(Nc2ccccc2P(C)(C)=O)n1` [GT-07348, 1-(3-((4-(4-((5-chloro-4-((2-(dimethylphosphoryl)phenyl)amino)pyrimidin-2-yl)amino)-3-methoxyphenyl)piperazin-1-yl)methyl)phenyl)dihydropyrimidine-2,4(1H,3H)-dione], the IC50 was 1000 to 1900 nM.

`Cc1cc(Nc2ncc(Cl)c(Nc3ccccc3S(=O)(=O)C(C)C)n2)c(OC(C)C)cc1C1CCN(Cc2ccc(C3CCC(=O)NC3=O)cc2)CC1` (stereo not drawn) [GT-07364, 3-(4-((4-(4-((5-chloro-4-((2-(isopropylsulfonyl)phenyl)amino)pyrimidin-2-yl)amino)-5-isopropoxy-2-methylphenyl)piperidin-1-yl)methyl)phenyl)piperidine-2,6-dione] registered an IC50 of 500 to 1000 nM.

As for `O=C1CCN(c2cc(CN3CCN(c4ccc(-c5cc(F)c6c(c5)C(=O)N(C(C(=O)Nc5nccs5)c5ncn7c5CCC7)C6)cc4)CC3)ccn2)C(=O)N1` (stereo not drawn) [GT-07379, 2-(6,7-dihydro-5H-pyrrolo[1,2-c]imidazol-1-yl)-2-(6-(4-(4-((2-(2,4-dioxotetrahydropyrimidin-1(2H)-yl)pyridin-4-yl)methyl)piperazin-1-yl)phenyl)-4-fluoro-1-oxoisoindolin-2-yl)-N-(thiazol-2-yl)acetamide], the IC50 is below 500 nM.

In the case of `O=C1CCN(c2cncc(CN3CCN(c4ccc(-c5cc(F)c6c(c5)C(=O)N(C(C(=O)Nc5nccs5)c5ncn7c5CCC7)C6)cc4)CC3)c2)C(=O)N1` (stereo not drawn) [GT-07380, 2-(6,7-dihydro-5H-pyrrolo[1,2-c]imidazol-1-yl)-2-(6-(4-(4-((5-(2,4-dioxotetrahydropyrimidin-1(2H)-yl)pyridin-3-yl)methyl)piperazin-1-yl)phenyl)-4-fluoro-1-oxoisoindolin-2-yl)-N-(thiazol-2-yl)acetamide], the concentration for half-maximal inhibition (IC50) is below 500 nM.

With `O=C1CCC(c2ccc(CN3CCN(c4ccc(-c5cc(F)c6c(c5)C(=O)N(C(C(=O)Nc5nccs5)c5ncn7c5CCC7)C6)cc4)CC3)nc2)C(=O)N1` (stereo not drawn) [GT-07381, 2-(6,7-dihydro-5H-pyrrolo[1,2-c]imidazol-1-yl)-2-(6-(4-(4-((5-(2,6-dioxopiperidin-3-yl)pyridin-2-yl)methyl)piperazin-1-yl)phenyl)-4-fluoro-1-oxoisoindolin-2-yl)-N-(thiazol-2-yl)acetamide], the IC50 was below 500 nM.

In the case of `CN(Cc1cc(N2CCC(=O)NC2=O)ncc1F)C1CCN(c2ccc(-c3cc(F)c4c(c3)C(=O)N(C(C(=O)Nc3nccs3)c3ncn5c3CCC5)C4)cc2)CC1` (stereo not drawn) [GT-07382, 2-(6,7-dihydro-5H-pyrrolo[1,2-c]imidazol-1-yl)-2-(6-(4-(4-(((2-(2,4-dioxotetrahydropyrimidin-1(2H)-yl)-5-fluoropyridin-4-yl)methyl)(methyl)amino)piperidin-1-yl)phenyl)-4-fluoro-1-oxoisoindolin-2-yl)-N-(thiazol-2-yl)acetamide], the half-inhibitory concentration (IC50) was in the range of 500 to 1000 nM.

`CN(Cc1ccnc(N2CCC(=O)NC2=O)c1)C1CCN(c2ccc(-c3cc(F)c4c(c3)C(=O)N(C(C(=O)Nc3nccs3)c3ncn5c3CCC5)C4)cc2)CC1` (stereo not drawn) [GT-07383, 2-(6,7-dihydro-5H-pyrrolo[1,2-c]imidazol-1-yl)-2-(6-(4-(4-(((2-(2,4-dioxotetrahydropyrimidin-1(2H)-yl)pyridin-4-yl)methyl)(methyl)amino)piperidin-1-yl)phenyl)-4-fluoro-1-oxoisoindolin-2-yl)-N-(thiazol-2-yl)acetamide] displayed an IC50 of 500 to 1000 nM.

Take `CN(Cc1cncc(N2CCC(=O)NC2=O)c1)C1CCN(c2ccc(-c3cc(F)c4c(c3)C(=O)N(C(C(=O)Nc3nccs3)c3ncn5c3CCC5)C4)cc2)CC1` (stereo not drawn) [GT-07384, 2-(6,7-dihydro-5H-pyrrolo[1,2-c]imidazol-1-yl)-2-(6-(4-(4-(((5-(2,4-dioxotetrahydropyrimidin-1(2H)-yl)pyridin-3-yl)methyl)(methyl)amino)piperidin-1-yl)phenyl)-4-fluoro-1-oxoisoindolin-2-yl)-N-(thiazol-2-yl)acetamide]: the IC50 is below 500 nM.

Molecule `CN(Cc1ccc(C2CCC(=O)NC2=O)cn1)C1CCN(c2ccc(-c3cc(F)c4c(c3)C(=O)N(C(C(=O)Nc3nccs3)c3ncn5c3CCC5)C4)cc2)CC1` (stereo not drawn) [GT-07385, 2-(6,7-dihydro-5H-pyrrolo[1,2-c]imidazol-1-yl)-2-(6-(4-(4-(((5-(2,6-dioxopiperidin-3-yl)pyridin-2-yl)methyl)(methyl)amino)piperidin-1-yl)phenyl)-4-fluoro-1-oxoisoindolin-2-yl)-N-(thiazol-2-yl)acetamide] gave an IC50 below 500 nM.

`O=C1CCN(c2cc(CN3C[C@H]4C[C@@H]3CN4c3ccc(-c4cc(F)c5c(c4)C(=O)N(C(C(=O)Nc4nccs4)c4ncn6c4CCC6)C5)cc3)c(F)cn2)C(=O)N1` (stereo partly drawn) [GT-07386, 2-(6,7-dihydro-5H-pyrrolo[1,2-c]imidazol-1-yl)-2-(6-(4-((1R,4R)-5-((2-(2,4-dioxotetrahydropyrimidin-1(2H)-yl)-5-fluoropyridin-4-yl)methyl)-2,5-diazabicyclo[2.2.1]heptan-2-yl)phenyl)-4-fluoro-1-oxoisoindolin-2-yl)-N-(thiazol-2-yl)acetamide]: the IC50 lay in the range of 1000 to 1900 nM.

The molecule `O=C1CCN(c2cc(CN3C[C@H]4C[C@@H]3CN4c3ccc(-c4cc(F)c5c(c4)C(=O)N(C(C(=O)Nc4nccs4)c4ncn6c4CCC6)C5)cc3)ccn2)C(=O)N1` (stereo partly drawn) [GT-07387, 2-(6,7-dihydro-5H-pyrrolo[1,2-c]imidazol-1-yl)-2-(6-(4-((1R,4R)-5-((2-(2,4-dioxotetrahydropyrimidin-1(2H)-yl)pyridin-4-yl)methyl)-2,5-diazabicyclo[2.2.1]heptan-2-yl)phenyl)-4-fluoro-1-oxoisoindolin-2-yl)-N-(thiazol-2-yl)acetamide] gave an IC50 of 1000 to 1900 nM.

Regarding `O=C1CCN(c2cncc(CN3C[C@H]4C[C@@H]3CN4c3ccc(-c4cc(F)c5c(c4)C(=O)N(C(C(=O)Nc4nccs4)c4ncn6c4CCC6)C5)cc3)c2)C(=O)N1` (stereo partly drawn) [GT-07388, 2-(6,7-dihydro-5H-pyrrolo[1,2-c]imidazol-1-yl)-2-(6-(4-((1R,4R)-5-((5-(2,4-dioxotetrahydropyrimidin-1(2H)-yl)pyridin-3-yl)methyl)-2,5-diazabicyclo[2.2.1]heptan-2-yl)phenyl)-4-fluoro-1-oxoisoindolin-2-yl)-N-(thiazol-2-yl)acetamide], the IC50 was below 500 nM.

For the origin of these results see patent US20260274829A1, “NEW E3 UBIQUITIN LIGASE LIGAND, PROTEIN DEGRADATION AGENT AND USE THEREOF” (GLUETACS THERAPEUTICS (SHANGHAI) CO., LTD., priority 2023, published 2026).
